From ChEMBL document CHEMBL6127095, “Isoxazole compounds: Unveiling the synthetic strategy, in-silico SAR & toxicity studies and future perspective as PARP inhibitor in cancer therapy” (Eur J Med Chem, 2024)
Values after ≈ are worked out from the molar mass of the structure shown. Structures can show the parent of a compound that is named as a salt.

Tests used:
[1] = target: Poly [ADP-ribose] polymerase 1 (Homo sapiens, UniProt P09874); assay: Inhibition of PARP-1 (unknown origin)
[2] = test system: 4T1; assay: Cytotoxicity against mouse 4T1 cells assessed as inhibition of cell proliferation incubated for 72 hrs by MTT assay; type: functional, cell-based; details: 4T1, 72 h
[3] = test system: PC-3; assay: Anticancer activity against human PC-3 cells assessed as inhibition of cell growth incubated for 24 hrs by MTT assay; type: functional, cell-based; details: PC-3, 24 h
[4] = test system: MCF7; assay: Anticancer activity against human MCF7 cells assessed as inhibition of cell growth incubated for 24 hrs by MTT assay; type: functional, cell-based; details: MCF7, 24 h
[5] = Toxicity in mouse assessed as lethal dose; details: in vivo
[6] = test system: MDA-MB-231; assay: Growth inhibition of human MDA-MB-231 cells; type: functional
[7] = test system: MDA-MB-231; assay: Anticancer activity against human MDA-MB-231 cells assessed as reduction in cell viability measured for 48 hrs by MTT assay; type: functional, cell-based; details: MDA-MB-231, 48 h
[8] = test system: MCF7; assay: Antitumor activity against human MCF7 cells xenografted in BALB/c nude mouse assessed as tumor growth inhibition at 30 mg/kg, iv administered for 15 days; type: functional; parameters: scale not given: the % may be the effect or the level left; details: time 15 day
[9] = test system: PC-3; assay: Antiproliferative activity against human PC-3 cells assessed as reduction in cell viability incubated for 24 hrs by MTT assay; type: functional, cell-based; details: PC-3, 24 h
[10] = test system: MCF7; assay: Growth inhibition of human MCF7 cells incubated fro 48 hrs by SRB assay; type: functional
[11] = test system: PC-3; assay: Growth inhibition of human PC-3 cells measured for 48 hrs by SRB assay; type: functional
[12] = target: Heat shock protein HSP90 (Homo sapiens, UniProt P07900+P08238); assay: Inhibition of HSP90 (unknown origin) ATPase activity; type: protein assay
[13] = test system: K562; assay: Antiproliferative activity against human K562 cells assessed as reduction in cell viability after 72 hrs by MTT assay; type: functional, cell-based; details: K562, 72 h
[14] = test system: DU-145; assay: Antiproliferative activity against human DU-145 cells assessed as reduction in cell viability by MTT assay; type: functional, cell-based
[15] = test system: HepG2; assay: Antiproliferative activity against human HepG2 cells assessed as reduction in cell viability after 24 hrs by MTT assay; type: functional, cell-based; details: HepG2, 24 h
[16] = test system: Huh-7; assay: Antiproliferative activity against human Huh-7 cells assessed as reduction in cell growth; type: functional, cell-based
[17] = test system: MCF7; assay: Antiproliferative activity against human MCF7 cells assessed as reduction in cell viability incubated for 48 hrs by MTT assay; type: functional, cell-based; details: MCF7, 48 h
[18] = target: Epidermal growth factor receptor (Homo sapiens, UniProt P00533); assay: Inhibition of EGFR (unknown origin) using TK as substrate incubated for 30 mins by HTRF assay
Epidermal growth factor receptor, sequence (P00533 whole entry): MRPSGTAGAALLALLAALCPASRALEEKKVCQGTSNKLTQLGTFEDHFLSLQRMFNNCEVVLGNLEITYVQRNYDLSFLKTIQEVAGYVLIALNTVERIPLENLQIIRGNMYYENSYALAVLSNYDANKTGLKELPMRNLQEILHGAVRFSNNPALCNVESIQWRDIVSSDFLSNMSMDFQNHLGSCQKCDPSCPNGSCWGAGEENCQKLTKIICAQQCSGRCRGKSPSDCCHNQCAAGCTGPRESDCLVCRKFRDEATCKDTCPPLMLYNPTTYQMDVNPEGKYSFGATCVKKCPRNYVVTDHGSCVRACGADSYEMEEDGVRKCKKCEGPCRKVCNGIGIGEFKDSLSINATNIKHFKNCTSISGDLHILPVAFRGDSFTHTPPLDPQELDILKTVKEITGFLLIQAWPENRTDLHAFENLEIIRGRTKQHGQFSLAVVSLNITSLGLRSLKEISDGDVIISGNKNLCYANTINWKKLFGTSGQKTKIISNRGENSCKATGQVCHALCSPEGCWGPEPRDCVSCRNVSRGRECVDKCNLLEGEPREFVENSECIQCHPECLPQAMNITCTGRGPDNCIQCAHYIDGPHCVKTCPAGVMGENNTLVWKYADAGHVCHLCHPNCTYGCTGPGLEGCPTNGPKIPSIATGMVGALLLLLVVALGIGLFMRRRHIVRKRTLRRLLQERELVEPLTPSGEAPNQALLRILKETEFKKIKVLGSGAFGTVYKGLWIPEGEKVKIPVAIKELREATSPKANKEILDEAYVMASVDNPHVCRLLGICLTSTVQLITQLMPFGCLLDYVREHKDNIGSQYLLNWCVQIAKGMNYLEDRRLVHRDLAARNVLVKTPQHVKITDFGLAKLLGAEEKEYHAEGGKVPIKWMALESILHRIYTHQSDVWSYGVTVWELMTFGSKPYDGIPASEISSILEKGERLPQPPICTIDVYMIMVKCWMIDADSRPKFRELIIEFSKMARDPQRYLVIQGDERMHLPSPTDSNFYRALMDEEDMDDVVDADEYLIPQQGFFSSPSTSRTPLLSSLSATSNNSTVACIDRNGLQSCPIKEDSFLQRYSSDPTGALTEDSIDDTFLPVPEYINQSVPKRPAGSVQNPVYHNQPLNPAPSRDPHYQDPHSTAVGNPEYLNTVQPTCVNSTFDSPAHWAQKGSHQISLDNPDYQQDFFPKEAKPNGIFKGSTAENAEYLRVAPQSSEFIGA

Poly [ADP-ribose] polymerase 1, sequence (P09874 whole entry): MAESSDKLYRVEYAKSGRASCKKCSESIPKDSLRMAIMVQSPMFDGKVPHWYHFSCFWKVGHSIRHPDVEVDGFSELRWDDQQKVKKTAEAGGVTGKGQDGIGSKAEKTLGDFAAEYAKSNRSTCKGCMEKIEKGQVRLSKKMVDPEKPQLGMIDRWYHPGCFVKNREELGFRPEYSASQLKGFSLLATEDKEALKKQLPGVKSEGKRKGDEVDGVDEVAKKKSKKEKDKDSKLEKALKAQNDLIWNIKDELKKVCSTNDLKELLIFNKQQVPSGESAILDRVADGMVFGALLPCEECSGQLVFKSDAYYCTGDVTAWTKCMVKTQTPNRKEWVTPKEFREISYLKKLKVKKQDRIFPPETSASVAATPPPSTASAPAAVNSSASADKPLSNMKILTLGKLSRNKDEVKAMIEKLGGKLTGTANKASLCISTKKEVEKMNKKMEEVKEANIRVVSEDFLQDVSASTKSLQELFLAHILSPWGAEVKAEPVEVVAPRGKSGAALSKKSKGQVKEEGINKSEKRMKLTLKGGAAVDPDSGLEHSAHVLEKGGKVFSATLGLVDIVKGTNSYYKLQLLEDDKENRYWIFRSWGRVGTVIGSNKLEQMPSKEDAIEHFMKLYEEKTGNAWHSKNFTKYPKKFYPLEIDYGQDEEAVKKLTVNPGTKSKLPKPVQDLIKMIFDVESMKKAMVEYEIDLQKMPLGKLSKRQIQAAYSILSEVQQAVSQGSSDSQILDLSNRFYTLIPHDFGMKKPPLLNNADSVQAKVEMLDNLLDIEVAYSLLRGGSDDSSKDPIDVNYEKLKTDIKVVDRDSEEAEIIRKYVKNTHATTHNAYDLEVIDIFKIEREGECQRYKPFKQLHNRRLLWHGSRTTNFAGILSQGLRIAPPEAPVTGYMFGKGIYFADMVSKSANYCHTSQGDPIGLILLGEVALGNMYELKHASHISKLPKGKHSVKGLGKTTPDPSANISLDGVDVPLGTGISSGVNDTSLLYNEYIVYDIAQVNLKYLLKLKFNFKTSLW

With `CCCCCCCCCCc1cc(CCC(N)(CO)CO)on1` the IC50 [1] was 7500 nM.
Compound `COc1ccc(-c2noc(-c3cccs3)c2C(F)(F)F)cc1OC` has an IC50 [2] of 2630 nM, an IC50 [3] of 2630 nM and an IC50 [4] of 2630 nM.
`Cc1noc(C)c1-c1cc(Cc2n[nH]c(=O)c3ccccc23)cc(NC(=O)c2ccccc2C(F)(F)F)c1` gave an LD50 [5] of 500 mg/kg.
With `c1cnoc1` [ISOXAZOLE] the IC50 [1] was 10000 nM.
Work on `CCc1cc(-c2oncc2-c2ccc(OC)cc2)c(O)cc1OC` yielded a GI50 [6] of 25000 nM and an IC50 [7] of 100 nM.
In the case of `CC(=O)c1c(O)c(C)c(O)c2c1OC1=Cc3onc(C)c3C(=O)[C@@]12C`, the Activity [8] is reported as 80%.
For `c1csc(-c2cc(-c3cncc(-c4nnc(-c5nccs5)o4)c3)no2)n1`, the IC50 [9] was 10 nM.
For `COc1ccc(-c2nnc(-c3cncc(-c4cc(-c5nccs5)on4)c3)o2)cc1`, the IC50 [9] was 10 nM.
`COc1cccc2c1C(=O)c1c(O)c3c(c(O)c1C2=O)C[C@@](O)(C(=O)CO)C[C@@H]3O[C@H]1C[C@H](N)[C@H](O)[C@H](C)O1` [DOXORUBICIN HYDROCHLORIDE] gave a GI50 [10] of 1000 nM and a GI50 [11] of 1000 nM.
`COc1ccc(-c2noc(NC(=O)c3ccc(F)c(F)c3)c2C#N)c(OC)c1` gave an IC50 [12] of 14000 nM.
`COc1cc(-c2nnc(-c3cncc(-c4cc(-c5nccs5)on4)c3)o2)cc(OC)c1OC` gave an IC50 [9] of 10 nM.
`Cc1onc([C@@H]2CN(C)C3(C(=O)c4ccccc4C3=O)[C@@]23C(=O)N(C)c2cc(Br)ccc23)c1[N+](=O)[O-]` showed an IC50 [13] of 20300 nM.
Compound `COc1ccc(/C=C/C(=O)c2ccno2)c(F)c1OC` has an IC50 [14] of 5 µg/mL (≈ 18 µM).
Compound `Cc1ccccc1COc1ccc(-c2noc(C)c2-c2ccc(Cl)cc2)cc1` has an IC50 [15] of 770 nM.
With `c1cc(-c2nnc(-c3cncc(-c4cc(-c5nccs5)on4)c3)o2)ccn1` the IC50 [9] was 10 nM.
With `COc1cc(NC(=O)c2cc(-c3c[nH]c4ccccc34)no2)cc(OC)c1OC` the IC50 [16] was 700 nM.
Compound `COc1c(Cl)cc(-c2noc(-c3cn(Cc4cc(-c5cc(Cl)cc(Cl)c5)no4)c4ccccc34)n2)cc1Cl` has an IC50 [17] of 2160 nM and an IC50 [18] of 200 nM.
In the case of `Cc1cc(C[C@@H]2C[C@H]3C(=O)N(C)C4(C[C@H](C)CC[C@H]4C(C)C)N3O2)c(O)c(-n2nc3ccccc3n2)c1` (stereo partly drawn), the LD50 [5] is reported as 1000 mg/kg.
